In patent US10414764B2, “Substantially pure vemurafenib and its salts” (SHILPA MEDICARE LIMITED, priority 2014, dated 2019):
Where a name gives a salt, the structure may show the parent alone. Read-outs that look alike come from different tables or passages of the source.

How the values were obtained:
[1] = cited from earlier work; for Solubility in water: marketed/prior reported crystalline Form II, from EMEA scientific discussion of Zelboraf
[2] = Solubility in water; assay type: physicochemical; settings: product as per the present invention
[3] = European assessment report of Zelboraf; low solubility and permeability; cited from earlier work
[4] = Storage stability (morphology and physicochemical characteristics); settings: Vemurafenib obtained as per the present process

In the case of `CCCS(=O)(=O)Nc1ccc(F)c(C(=O)c2c[nH]c3ncc(-c4ccc(Cl)cc4)cc23)c1F` [Form-II, propane-1-sulfonic acid-{3-[5-(4-chlorophenyl)-1H-pyrrolo[2,3-b]pyridine-3-carbonyl]-2,4-difluoro-phenyl}-amide], the Solubility in water [1] is listed as under 0.1 µg/mL and the Solubility in water ([1]; listed as Crystalline Vemurafenib (Form II)) is listed as under 0.1 µg/mL.

`CCCS(=O)(=O)Nc1ccc(F)c(C(=O)c2c[nH]c3ncc(-c4ccc(Cl)cc4)cc23)c1F` [Form-SVM, propane-1-sulfonic acid-{3-[5-(4-chlorophenyl)-1H-pyrrolo[2,3-b]pyridine-3-carbonyl]-2,4-difluoro-phenyl}-amide] gave a Solubility in water [2] of over 1 µg/mL and a solubility ([2]; water) of over 1 µg/mL.

For `CCCS(=O)(=O)Nc1ccc(F)c(C(=O)c2c[nH]c3ncc(-c4ccc(Cl)cc4)cc23)c1F` [Vemurafenib trifluoro methane sulfonic acid salt], the Solubility in water [2] was at least 1 µg/mL.

For `CCCS(=O)(=O)Nc1ccc(F)c(C(=O)c2c[nH]c3ncc(-c4ccc(Cl)cc4)cc23)c1F` [Vemurafenib, propane-1-sulfonic acid-{3-[5-(4-chlorophenyl)-1H-pyrrolo[2,3-b]pyridine-3-carbonyl]-2,4-difluoro-phenyl}-amide], the “Solubility in aqueous media” value ([1]; background description of the drug substance) is listed as “practically insoluble”, the Solubility in water [1] is listed as under 0.1 µg/mL and the “Biopharmaceutics Classification System class” value [3] is listed as “Class IV”. The “Stable to handle and store without significant change in morphology and physicochemical characteristics” value [4] was “more than 6 months”.
